Data reported in paper PMC6751662, “Pharmacological and functional similarities of the human neuropeptide Y system in C. elegans challenges phylogenetic views on the FLP/NPR system” (Cell Communication and Signaling : CCS, 2019).

Experiments:
Assay type in all cases: cell-based
[1] = target: T1, QRFPR (Homo sapiens, UniProt Q96P65); experiment: IP accumulation assay, endogenous Gαq coupling, QRFPR; details: transiently transfected HEK293 cells, mean of at least three independent experiments
T1 construct: expressed in transfected cells; host or cells: HEK293, transient
T1 sequence (Q96P65 1-431): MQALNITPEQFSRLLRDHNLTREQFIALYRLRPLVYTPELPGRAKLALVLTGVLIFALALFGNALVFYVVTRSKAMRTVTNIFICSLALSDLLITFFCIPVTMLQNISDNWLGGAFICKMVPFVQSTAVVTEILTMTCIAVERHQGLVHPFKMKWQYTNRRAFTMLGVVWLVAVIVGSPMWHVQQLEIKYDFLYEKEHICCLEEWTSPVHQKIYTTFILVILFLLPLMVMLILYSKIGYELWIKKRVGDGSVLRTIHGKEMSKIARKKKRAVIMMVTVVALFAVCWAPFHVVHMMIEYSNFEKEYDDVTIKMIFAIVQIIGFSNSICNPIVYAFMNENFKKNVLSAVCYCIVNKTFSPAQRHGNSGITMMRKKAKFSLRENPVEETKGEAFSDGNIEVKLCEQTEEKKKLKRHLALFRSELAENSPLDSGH
Protocol: (§1) For measuring IP accumulation, HEK293 cells grown to 70–80% confluency in 6-well plates were transiently co-transfected using Metafectene Pro (2.5 μl/μg DNA; Biontex) with plasmids containing receptor and/or mock (empty pcDNA3.1) (for endogenous Gq-coupling) using 4 μg total DNA in a ratio of 3:1 following the manufacturer’s instructions. For testing Gα16- and GαΔ6qi4myr-coupling, plasmids encoding the corresponding Gα protein were co-transfected instead of mock. Gα16 is naturally promiscuous and stimulates the phospholipase C (PLC) pathway leading to IP production, while the exchange of the C-terminal four amino acids of Gαq for the corresponding residues of Gαi1 in the chimeric GαΔ6qi4myr confers the ability to couple to Gi/o protein-preferring receptors but still stimulate PLC, thus specifically redirecting downstream cellular signaling. 16 h post transfection, the cells were seeded into white 384-well plates at a density of 20,000 cells/well. Media was removed 24 h later and the cells were incubated with the indicated concentration of peptides for 1 h in HBSS + 20 mM LiCl. IP accumulation was measured with the HTRF-based IP-One Gq kit (Cisbio) on a microplate reader (Tecan Spark).
(§2) For in vitro activation, data is presented as mean ± SEM of at least three independent experiments conducted in technical triplicate. […] For the C. elegans NPRs, we considered the strongest response elicited by any of the peptides downstream of a particular receptor as the receptor’s maximal signal. This may or may not be the biological maximum that can be reached by the ‘true’ endogenous agonist. For the human receptors, the response to the established endogenous agonist reflected the maximal signal.

[2] = target: T2, PrRPR (Homo sapiens, UniProt P49683); experiment: IP accumulation assay, endogenous Gαq coupling, PrRPR; details: transiently transfected HEK293 cells, mean of at least three independent experiments
T2 construct: expressed in transfected cells; host or cells: HEK293, transient
T2 sequence (P49683 1-370): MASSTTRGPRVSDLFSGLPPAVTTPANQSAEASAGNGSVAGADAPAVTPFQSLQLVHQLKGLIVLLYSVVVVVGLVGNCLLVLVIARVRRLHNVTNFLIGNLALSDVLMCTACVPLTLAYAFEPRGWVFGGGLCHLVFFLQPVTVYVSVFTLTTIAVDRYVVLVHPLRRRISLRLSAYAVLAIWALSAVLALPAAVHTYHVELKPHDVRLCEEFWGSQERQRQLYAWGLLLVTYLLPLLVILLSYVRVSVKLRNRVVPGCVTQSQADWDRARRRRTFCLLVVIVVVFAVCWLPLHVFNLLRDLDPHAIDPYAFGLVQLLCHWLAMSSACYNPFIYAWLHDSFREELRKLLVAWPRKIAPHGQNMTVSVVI
Protocol: as §1, §2

[3] = target: T3, Y2R (Homo sapiens, UniProt P49146); experiment: IP accumulation assay, chimeric GαΔ6qi4myr, Y2R; details: chimeric GαΔ6qi4myr co-transfected, transiently transfected HEK293 cells, mean of at least three independent experiments
T3 construct: expressed in transfected cells; host or cells: HEK293, transient
T3 sequence (P49146 1-381): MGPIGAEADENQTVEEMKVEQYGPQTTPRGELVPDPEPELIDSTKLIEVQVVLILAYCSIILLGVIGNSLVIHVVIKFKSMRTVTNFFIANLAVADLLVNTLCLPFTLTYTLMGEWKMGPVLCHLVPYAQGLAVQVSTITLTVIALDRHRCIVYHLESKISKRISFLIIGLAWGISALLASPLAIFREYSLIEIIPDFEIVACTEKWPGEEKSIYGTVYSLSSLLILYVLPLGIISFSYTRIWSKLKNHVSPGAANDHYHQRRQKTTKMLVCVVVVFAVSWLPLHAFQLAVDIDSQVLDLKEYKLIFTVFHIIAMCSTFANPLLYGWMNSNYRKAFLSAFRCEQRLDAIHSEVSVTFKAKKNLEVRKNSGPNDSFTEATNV
Protocol: as §1, §2

[4] = target: T4, NPFF2R (Homo sapiens, UniProt Q9Y5X5); experiment: IP accumulation assay, chimeric GαΔ6qi4myr, NPFF2R; details: chimeric GαΔ6qi4myr co-transfected, transiently transfected HEK293 cells, mean of at least three independent experiments
T4 construct: expressed in transfected cells; host or cells: HEK293, transient
T4 sequence (Q9Y5X5 103-522): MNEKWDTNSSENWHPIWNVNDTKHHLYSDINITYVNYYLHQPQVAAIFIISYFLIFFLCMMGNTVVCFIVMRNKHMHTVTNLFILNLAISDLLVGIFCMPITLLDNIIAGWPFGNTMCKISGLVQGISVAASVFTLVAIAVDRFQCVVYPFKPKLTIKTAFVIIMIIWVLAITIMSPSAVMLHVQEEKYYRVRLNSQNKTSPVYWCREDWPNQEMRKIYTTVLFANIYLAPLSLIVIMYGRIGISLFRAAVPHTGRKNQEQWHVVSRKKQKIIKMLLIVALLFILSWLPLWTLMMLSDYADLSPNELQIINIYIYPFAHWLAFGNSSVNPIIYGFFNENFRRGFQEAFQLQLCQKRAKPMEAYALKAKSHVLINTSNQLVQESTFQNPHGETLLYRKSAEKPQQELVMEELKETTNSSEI
Protocol: as §1, §2

[5] = target: T5, Y1R (Homo sapiens, UniProt P25929); experiment: IP accumulation assay, chimeric GαΔ6qi4myr, Y1R; details: chimeric GαΔ6qi4myr co-transfected, transiently transfected HEK293 cells, mean of at least three independent experiments
T5 construct: expressed in transfected cells; host or cells: HEK293, transient
T5 sequence (P25929 1-384): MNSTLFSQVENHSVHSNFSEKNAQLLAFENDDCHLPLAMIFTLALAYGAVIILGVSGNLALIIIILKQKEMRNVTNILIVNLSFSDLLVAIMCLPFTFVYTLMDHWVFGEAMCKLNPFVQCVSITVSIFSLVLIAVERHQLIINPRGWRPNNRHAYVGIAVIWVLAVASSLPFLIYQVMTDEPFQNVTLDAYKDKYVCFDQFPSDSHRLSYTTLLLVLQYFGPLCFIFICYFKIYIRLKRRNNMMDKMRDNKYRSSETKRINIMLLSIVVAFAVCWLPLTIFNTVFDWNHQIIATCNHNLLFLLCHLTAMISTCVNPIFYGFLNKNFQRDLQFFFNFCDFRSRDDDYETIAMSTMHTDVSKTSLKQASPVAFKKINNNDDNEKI
Protocol: as §1, §2

[6] = target: T6, NPFF1R (Homo sapiens, UniProt Q9GZQ6); experiment: IP accumulation assay, chimeric GαΔ6qi4myr, NPFF1R; details: chimeric GαΔ6qi4myr co-transfected, transiently transfected HEK293 cells, mean of at least three independent experiments
T6 construct: expressed in transfected cells; host or cells: HEK293, transient
T6 sequence (Q9GZQ6 whole entry): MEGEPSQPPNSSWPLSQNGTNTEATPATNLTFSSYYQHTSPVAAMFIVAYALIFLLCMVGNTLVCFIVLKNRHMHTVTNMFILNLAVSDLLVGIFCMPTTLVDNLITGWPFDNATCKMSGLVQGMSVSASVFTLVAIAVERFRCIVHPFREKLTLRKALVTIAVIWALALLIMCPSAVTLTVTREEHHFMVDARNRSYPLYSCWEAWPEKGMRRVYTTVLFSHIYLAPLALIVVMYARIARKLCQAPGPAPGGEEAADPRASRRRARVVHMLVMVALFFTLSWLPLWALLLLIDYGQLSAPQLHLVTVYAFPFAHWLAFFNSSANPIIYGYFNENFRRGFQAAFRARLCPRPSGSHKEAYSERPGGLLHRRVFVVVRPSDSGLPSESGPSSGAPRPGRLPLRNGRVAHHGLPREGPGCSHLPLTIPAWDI
Protocol: as §1, §2

[7] = target: T7, Y4R (Homo sapiens, UniProt P50391); experiment: IP accumulation assay, chimeric GαΔ6qi4myr, Y4R; details: chimeric GαΔ6qi4myr co-transfected, transiently transfected HEK293 cells, mean of at least three independent experiments
T7 construct: expressed in transfected cells; host or cells: HEK293, transient
T7 sequence (P50391 whole entry): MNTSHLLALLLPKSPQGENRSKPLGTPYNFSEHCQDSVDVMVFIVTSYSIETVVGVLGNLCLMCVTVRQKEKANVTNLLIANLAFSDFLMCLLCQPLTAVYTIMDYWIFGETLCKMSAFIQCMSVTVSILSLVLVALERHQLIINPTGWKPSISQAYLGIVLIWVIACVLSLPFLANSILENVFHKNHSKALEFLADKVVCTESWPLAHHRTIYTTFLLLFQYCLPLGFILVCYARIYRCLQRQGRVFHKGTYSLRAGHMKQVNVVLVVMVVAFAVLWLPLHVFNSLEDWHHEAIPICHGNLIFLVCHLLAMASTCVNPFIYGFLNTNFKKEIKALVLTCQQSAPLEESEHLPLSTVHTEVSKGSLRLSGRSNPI
Protocol: as §1, §2

| IP accumulation, x-fold of basal (mean), QRFPR# ([1]; 0.1 µM peptide) | IP accumulation, x-fold of basal (mean), QRFPR# ([1]; 10 µM peptide) | IP accumulation, x-fold of basal (mean), PrRPR# ([2]; 0.1 µM peptide) | IP accumulation, x-fold of basal (mean), PrRPR# ([2]; 10 µM peptide) | IP accumulation, x-fold of basal (mean), Y2R ([3]; 0.1 µM peptide) | IP accumulation, x-fold of basal (mean), Y2R ([3]; 10 µM peptide) | IP accumulation, x-fold of basal (mean), NPFF2R ([4]; 0.1 µM peptide) | IP accumulation, x-fold of basal (mean), NPFF2R ([4]; 10 µM peptide) | IP accumulation, x-fold of basal (mean), Y1R ([5]; 0.1 µM peptide) | IP accumulation, x-fold of basal (mean), Y1R ([5]; 10 µM peptide) | IP accumulation, x-fold of basal (mean), NPFF1R ([6]; 0.1 µM peptide) | IP accumulation, x-fold of basal (mean), NPFF1R ([6]; 10 µM peptide) | IP accumulation, x-fold of basal (mean), Y4R ([7]; 0.1 µM peptide) | IP accumulation, x-fold of basal (mean), Y4R ([7]; 10 µM peptide) | Substance |
| --- | --- | --- | --- | --- | --- | --- | --- | --- | --- | --- | --- | --- | --- | --- |
| 0.87 x-fold of basal | 0.95 x-fold of basal | 0.93 x-fold of basal | 0.91 x-fold of basal | – | – | – | – | – | – | – | – | – | – | EASAFGDIIGELKGKGLGGRMRF-NH2 [FLP-27, NPY-like C. elegans FLP with C-terminal RxRF/Ya signature] |
| 0.75 x-fold of basal | 0.75 x-fold of basal | 0.99 x-fold of basal | 1.01 x-fold of basal | 3.40 x-fold of basal | 12.24 x-fold of basal | 0.95 x-fold of basal | 1.44 x-fold of basal | 17.01 x-fold of basal | 25.89 x-fold of basal | 0.75 x-fold of basal | 0.75 x-fold of basal | 4.73 x-fold of basal | 4.61 x-fold of basal | APLEPVYPGDNATPEQMAQYAADLRRYINMLTRPRY-NH2 [PP, human pancreatic polypeptide, reference compound] |
| 0.59 x-fold of basal | 0.63 x-fold of basal | 26.01 x-fold of basal | 27.38 x-fold of basal | 0.81 x-fold of basal | 5.05 x-fold of basal | 1.75 x-fold of basal | 2.32 x-fold of basal | 0.82 x-fold of basal | 2.68 x-fold of basal | 0.94 x-fold of basal | 2.37 x-fold of basal | 0.80 x-fold of basal | 0.89 x-fold of basal | TPDINPAWYASRGIRPVGRF-NH2 [PrRP20, human prolactin-releasing peptide, 20 residues, reference compound] |
| 1.07 x-fold of basal | 0.92 x-fold of basal | 1.04 x-fold of basal | 1.27 x-fold of basal | 2.81 x-fold of basal | 1.41 x-fold of basal | 1.10 x-fold of basal | 2.86 x-fold of basal | 1.25 x-fold of basal | 3.68 x-fold of basal | 2.11 x-fold of basal | 3.54 x-fold of basal | 1.28 x-fold of basal | 1.45 x-fold of basal | AGSDPNFLRF-NH2 [FLP-1-2, C. elegans FMRFamide-like peptide, C-terminally amidated, synthesized by SPPS] |
| 0.91 x-fold of basal | 0.80 x-fold of basal | 0.91 x-fold of basal | 0.88 x-fold of basal | – | – | – | – | – | – | – | – | – | – | APLEGFEDMSGFLRTIDGIQKPRF-NH2 [FLP-33, NPY-like C. elegans FLP with C-terminal RxRF/Ya signature] |
| 1.26 x-fold of basal | 0.98 x-fold of basal | 0.85 x-fold of basal | 0.86 x-fold of basal | 0.76 x-fold of basal | 2.05 x-fold of basal | 1.07 x-fold of basal | 2.36 x-fold of basal | 2.37 x-fold of basal | 1.93 x-fold of basal | 1.86 x-fold of basal | 3.68 x-fold of basal | 1.45 x-fold of basal | 1.04 x-fold of basal | ASPSFIRF-NH2 [FLP-4-2, C. elegans FMRFamide-like peptide, C-terminally amidated, synthesized by SPPS] |

| Substance | IP accumulation, x-fold of basal (mean), QRFPR# ([1]; 0.1 µM peptide) | IP accumulation, x-fold of basal (mean), QRFPR# ([1]; 10 µM peptide) | IP accumulation, x-fold of basal (mean), PrRPR# ([2]; 0.1 µM peptide) | IP accumulation, x-fold of basal (mean), PrRPR# ([2]; 10 µM peptide) | IP accumulation, x-fold of basal (mean), Y2R ([3]; 0.1 µM peptide) | IP accumulation, x-fold of basal (mean), Y2R ([3]; 10 µM peptide) | IP accumulation, x-fold of basal (mean), NPFF2R ([4]; 0.1 µM peptide) | IP accumulation, x-fold of basal (mean), NPFF2R ([4]; 10 µM peptide) | IP accumulation, x-fold of basal (mean), Y1R ([5]; 0.1 µM peptide) | IP accumulation, x-fold of basal (mean), Y1R ([5]; 10 µM peptide) | IP accumulation, x-fold of basal (mean), NPFF1R ([6]; 0.1 µM peptide) | IP accumulation, x-fold of basal (mean), NPFF1R ([6]; 10 µM peptide) | IP accumulation, x-fold of basal (mean), Y4R ([7]; 0.1 µM peptide) | IP accumulation, x-fold of basal (mean), Y4R ([7]; 10 µM peptide) |
| --- | --- | --- | --- | --- | --- | --- | --- | --- | --- | --- | --- | --- | --- | --- |
| PrRP31 [reference compound] | 0.58 x-fold of basal | 0.59 x-fold of basal | 25.49 x-fold of basal | 25.47 x-fold of basal | 0.76 x-fold of basal | 5.57 x-fold of basal | 1.83 x-fold of basal | 2.28 x-fold of basal | 0.87 x-fold of basal | 1.86 x-fold of basal | 0.87 x-fold of basal | 2.26 x-fold of basal | 0.84 x-fold of basal | 1.10 x-fold of basal |
